Experimental findings from patent publication US8921382B2, “Thiazolo[5,4-d] pyrimidines and their use as agrochemicals” (Dow AgroSciences, LLC., priority 2010, dated 2014) are described below.

For data set [1], the system named is Pseudoperonospora cubensis. The data set is described as follows: Cucumber Downy Mildew foliar spray test, inoculated one day after treatment. In kind it is in vivo. As to conditions: applied to foliage at 200 ppm, cucumber plants, read-out: Activity against Fungal Diseases PSPECU (percent disease control). The protocol:
Fungicide activity data are the level (in percent) at which the given disease was controlled when the given compound was applied to the foliage of the plants at 200 ppm. In a few cases (noted in the table) the compound was applied to the plants at 25 ppm or 3 ppm. The plants were inoculated with the fungus one day after treatment. ***=80-100% control; **=50-79% control; *=0-49% control. […] The activity of the compounds as effective fungicides was determined by applying the compounds to plants and observing control of fungal disease. […] All plants were inoculated with spores of the fungus the day after treatment, then incubated in an environment conducive to disease development. Disease severity was evaluated 4 to 25 days (d) later, depending on the speed of disease development. The following experiments were performed in the laboratory to determine the fungicidal efficacy of the compounds of the invention. Cucumber Downy Mildew (causal agent Pseudoperonospora cubensis; Bayer code […]): Cucumber plants (variety 'Bush Champion' or 'Bush Pickle Hybrid') were grown from seed in a soil-less peat-based potting mixture (Metromix) until the first true leaf was 20-80% expanded. Each pot contained 1 seedling. These plants were sprayed until wet with the formulated test compound. On the following day, the leaves were inoculated with an aqueous suspension of downy mildew sporangia and the plants were kept in high humidity for one day to permit sporangia to germinate and infect the leaf. The plants were then incubated in a growth chamber until disease developed on untreated control plants. […] The effectiveness of the test compounds at controlling disease when sprayed on leaves was determined by assessing the severity of disease on treated plants, then converting the severity to percent control based on the level of disease on untreated, inoculated plants.

For data set [2], the system named is Puccinia recondita tritici. Briefly: Leaf Rust of Wheat foliar spray test, inoculated one day after treatment. The settings on record: applied to foliage at 200 ppm, wheat plants, read-out: Activity against Fungal Diseases PUCCRT (percent disease control). In kind it is in vivo. The protocol: (§1) Fungicide activity data are the level (in percent) at which the given disease was controlled when the given compound was applied to the foliage of the plants at 200 ppm. In a few cases (noted in the table) the compound was applied to the plants at 25 ppm or 3 ppm. The plants were inoculated with the fungus one day after treatment. ***=80-100% control; **=50-79% control; *=0-49% control. […] The activity of the compounds as effective fungicides was determined by applying the compounds to plants and observing control of fungal disease. […] All plants were inoculated with spores of the fungus the day after treatment, then incubated in an environment conducive to disease development. Disease severity was evaluated 4 to 25 days (d) later, depending on the speed of disease development. The following experiments were performed in the laboratory to determine the fungicidal efficacy of the compounds of the invention. […] Each pot contained 3-8 seedlings. These plants were sprayed until wet with the formulated test compounds. On the following day, the leaves were inoculated with an aqueous spore suspension of Puccinia recondita tritici and the plants were kept in high humidity overnight to permit spores to germinate and infect the leaf. The plants were then transferred to a greenhouse until disease developed on untreated control plants. […] The effectiveness of the test compounds at controlling disease when sprayed on leaves was determined by assessing the severity of disease on treated plants, then converting the severity to percent control based on the level of disease on untreated, inoculated plants.

The next data set relates to Pyricularia oryzae. The data set is described as follows: whole plant or invertebrate. In kind it is in vivo. As to conditions: foliar, read-out: Activity against Fungal Diseases PYRIOR (percent disease control).
The subject of another data set is Septoria tritici. The data set is described as follows: Septoria Blotch of Wheat foliar spray test, inoculated one day after treatment. As to conditions: Zymoseptoria tritici, wheat plants, read-out: Activity against Fungal Diseases SEPTTR (percent disease control); for pest or weed control at 200 ppm: applied to foliage at 200 ppm; for pest or weed control at 25 ppm: Tested at 25 ppm. It counts as in vivo. The procedure: as §1, with “3-10” for “3-8”, “compound.” for “compounds.”, “Septoria” for “Puccinia recondita”, “(one day in a dark dew chamber followed by two days in a lighted dew chamber)” for “overnight”

The next data set concerns Caenorhabditis elegans. The settings on record: Application rate 10 micrograms per milliliter agar; evaluated after 24 h at 20° C.

Description for Caenorhabditis elegans: The activity of the compounds against Caenorhabditis elegans was determined by dissolving compounds in DMSO, then applying them to petri dishes containing Nematode Growth Medium agar to a final concentration of 10 micrograms (μg) compound per milliliter agar. Escherichia coli bacteria were grown on the plates to provide a food source for the larvae of Caenorhabditis elegans. The bacteria were heat-killed at 65° C. before compounds were added to the plates.
The plates with compound and heat-killed bacteria were infested with 10 microliter (μL) drops containing eggs from wild-type Caenorhabditis elegans worms. Adult worms were dissolved in potassium hydroxide (KOH) and bleach and washed in Ringers solution to generate the egg suspension. Each compound was screened with approximately 400 eggs, divided between two petri dishes. Egg hatching was evaluated after 24 h at 20° C. Mortality was averaged over the two plates.

With `COc1cc(CCNc2ncnc3scnc23)ccc1O` [Compound 12, 2-methoxy-4-[2-(thiazolo[5,4-d]pyrimidin-7-ylamino)-ethyl]-phenol], the melting point fell in the range of 151 to 154 °C.
For `FC(F)(F)c1cc(Oc2ccc(CCNc3ncnc4scnc34)cc2)ccn1` [Compound 40, thiazolo[5,4-d]pyrimidin-7-yl-{2-[4-(2-trifluoromethylpyridin-4-yloxy)-phenyl]-ethyl}-amine], the pest or weed control at 200 ppm (in data set [1]; in data set [2]; in the data set with Pyricularia oryzae; in the data set with Septoria tritici) was 80 to 100% throughout.
With `Fc1cc(CCNc2ncnc3scnc23)ccc1Oc1cc(C(F)(F)F)ccn1` [Compound 41, {2-[3-fluoro-4-(4-trifluoromethylpyridin-2-yloxy)-phenyl]-ethyl}-thiazolo[5,4-d]pyrimidin-7-ylamine], the pest or weed control at 200 ppm (in data set [1]; in data set [2]; in the data set on Pyricularia oryzae; in the data set on Septoria tritici) was 80 to 100% in each case.
Regarding `COc1cc(CCNc2ncnc3scnc23)ccc1Oc1cc(C(F)(F)F)cc[n+]1[O-]` [Compound 42, {2-[3-methoxy-4-(1-oxy-4-trifluoromethylpyridin-2-yloxy)-phenyl]-ethyl}-thiazolo[5,4-d]pyrimidin-7-ylamine], the pest or weed control at 200 ppm (in data set [1]; in data set [2]; in the data set on Pyricularia oryzae; with Septoria tritici) was 80 to 100% throughout.
As to `FC(F)(F)c1ccncc1Oc1ccc(CCNc2ncnc3scnc23)cc1` [Compound 43, thiazolo[5,4-d]pyrimidin-7-yl-{2-[4-(4-trifluoromethylpyridin-3-yloxy)-phenyl]-ethyl}-amine], the pest or weed control at 200 ppm (in data set [1]; in data set [2]; in the data set on Pyricularia oryzae; in the data set with Septoria tritici) was 80 to 100% each time.
Turning to `c1ccc2c(c1)oc1ccc(CCNc3ncnc4scnc34)cc12` [Compound 44, (2-dibenzofuran-2-ylethyl)-thiazolo[5,4-d]pyrimidin-7-yl-amine], the pest or weed control at 200 ppm in data set [1] was in the range of 80 to 100%; in data set [2] it was 0 to 49%; with Pyricularia oryzae, 80 to 100%; in the data set on Septoria tritici it was 50 to 79%.
Take `Cc1cc(CCNc2ncnc3scnc23)ccc1Oc1nc(C(F)(F)F)c(Cl)s1` [Compound 46, {2-[4-(5-chloro-4-trifluoromethylthiazol-2-yloxy)-3-methylphenyl]-ethyl}-thiazolo[5,4-d]pyrimidin-7-ylamine]: the pest or weed control at 200 ppm (in data set [1]; in data set [2]; in the data set on Pyricularia oryzae; in the data set with Septoria tritici) was 80 to 100% throughout.
With `Cc1cc(CCNc2ncnc3scnc23)ccc1Oc1c(Cl)cnc(C(F)(F)F)c1Cl` [Compound 49, {2-[4-(3,5-dichloro-2-trifluoromethylpyridin-4-yloxy)-3-methylphenyl]-ethyl}-thiazolo[5,4-d]pyrimidin-7-ylamine], the pest or weed control at 200 ppm was 50 to 79% in data set [1], 50 to 79% in data set [2] and 80 to 100% in the data set on Pyricularia oryzae. Also, in the data set on Septoria tritici, the pest or weed control at 25 ppm was 0 to 49%.
In the case of `FC(F)(F)c1cc(Oc2ccc(CCNc3ncnc4scnc34)cc2)ncn1` [Compound 52, thiazolo[5,4-d]pyrimidin-7-yl-{2-[4-(6-trifluoromethylpyrimidin-4-yloxy)-phenyl]-ethyl}-amine], the pest or weed control at 200 ppm (in data set [1]; in data set [2]; in the data set with Pyricularia oryzae) was 80 to 100% throughout. Besides, the pest or weed control at 25 ppm in the data set with Septoria tritici is 80 to 100%.
`Cc1cc(CCNc2ncnc3scnc23)ccc1Oc1cc(C(F)(F)F)ncn1` [Compound 53, {2-[3-methyl-4-(6-trifluoromethylpyrimidin-4-yloxy)-phenyl]-ethyl}-thiazolo[5,4-d]pyrimidin-7-ylamine]: the pest or weed control at 200 ppm (in data set [1]; in data set [2]; with Pyricularia oryzae) was 80 to 100% each time. The pest or weed control at 25 ppm with Septoria tritici is 80 to 100%.
As to `Cc1cc(Oc2cc(C(F)(F)F)ccn2)ccc1CCNc1ncnc2scnc12` [Compound 59, {2-[2-methyl-4-(4-trifluoromethylpyridin-2-yloxy)-phenyl]-ethyl}-thiazolo[5,4-d]pyrimidin-7-ylamine], the pest or weed control at 200 ppm (in data set [1]; in data set [2]; in the data set on Pyricularia oryzae; with Septoria tritici) was 80 to 100% in each case.
On to `Fc1cc(C(F)(F)F)cnc1Oc1ccc(CCNc2ncnc3scnc23)cc1` [Compound 61, {2-[4-(3-fluoro-5-trifluoromethylpyridin-2-yloxy)-phenyl]-ethyl}-thiazolo[5,4-d]pyrimidin-7-ylamine], for which the pest or weed control at 200 ppm (in data set [1]; in data set [2]; in the data set with Pyricularia oryzae) was 80 to 100% throughout. Further, in the data set on Septoria tritici, the pest or weed control at 25 ppm was in the range of 50 to 79%.
Take `Cc1cc(C(F)(F)F)cc(Oc2ccc(CCNc3ncnc4scnc34)cc2)n1` [Compound 62, {2-[4-(6-methyl-4-trifluoromethylpyridin-2-yloxy)-phenyl]-ethyl}-thiazolo[5,4-d]pyrimidin-7-ylamine]: the pest or weed control at 200 ppm (in data set [1]; in data set [2]; with Pyricularia oryzae; in the data set with Septoria tritici) was 80 to 100% in each case.
On to ivermectin, for which the Percent mortality with Caenorhabditis elegans was 95%.

What is called melting point is the temperature of the solid-liquid transition.
